Measurements taken from patent publication US8222263B2, “Inhibitors of hedgehog pathway” (Exelixis Patent Company LLC, priority 2007, dated 2012).

System: Gli-luciferase (firefly) reporter in SHh Light II cell line (NIH-3T3), Hedgehog pathway
Assay: Light II Assay (SHh-Smo cell-based Gli-luciferase reporter assay)
Details: rSHh stimulated cells, 24 hours, % inhibition of luciferase signal
Method: The SHh-Smo assay is a cell-based reporter assay in the SHh Light II cell line (NIH-3T3), available through the American Tissue Culture Center (ATCC). […] In addition, this cell line contains a constitutively expressed renilla luciferase reporter (via CMV promoter) which can be used as a readout to detect any non-specific compound effects, including cytotoxicity.
Test compounds were serially diluted in DMSO and 1.5 μL aliquots were transferred to 384-well non-binding plates. Compounds were diluted with 85 μL of assay media (DMEM+0.5% FBS, 5 mM Hepes, 1% NEAA, 1% PenStrep, 0.8% Geneticin). Cell plates were prepared by adding 50 μL of assay media (240 cells/μL) to white TC coated 384-well plates (final cell concentration is 12,000 cells/well). Cell plates were incubated overnight at 37° C.
Media was removed from the cell plates and 30 μL of compound in assay media+rSHh (1.5 μg/well) was added to the cell plates. Plates were incubated at 37° C. for 24 hours. Following overnight incubation, media was aspirated from the cell plates and 20 μL of luciferase media (Bright-glo, Promega) was added to the cell. Cells were incubated for 5 minutes and measured on an Envision™ plate reader (Perkn Elmer) using the luciferase detection protocol. IC50 values were calculated as a percentage inhibition of luciferase signal from rSHh stimulated cells compared to unstimulated cells.

| Structure (SMILES) | IC50 [nM] |
| --- | --- |
| Cc1ccc(CN(C)C)cc1NC(=O)c1ccc(Nc2nc(-c3cccs3)c3ccccc3n2)cc1 [N-{5-[(dimethylamino)methyl]-2-methylphenyl}-4-{[4-(2-thienyl)quinazolin-2-yl]amino}benzamide] | 21 |
| Cc1cccc(C)c1NC(=O)c1ccc(Nc2nc3c(c(-c4ccccc4)n2)CN(Cc2ccccc2)CC3)cc1 [N-(2,6-dimethylphenyl)-4-{[4-phenyl-6-(phenylmethyl)-5,6,7,8-tetrahydropyrido[4,3-d]pyrimidin-2-yl]amino}benzamide] | 156 |
| Cc1cccc(C)c1NC(=O)c1ccc(Nc2nc(-c3ccccc3)c3cccnc3n2)cc1 [N-(2,6-dimethylphenyl)-4-[(4-phenylpyrido[2,3-d]pyrimidin-2-yl)amino]benzamide] | 3.6 |
| Cc1ccc(-c2ccn[nH]2)cc1NC(=O)c1ccc(Nc2nc(-c3ccccc3)c3ccccc3n2)cc1 [N-[2-methyl-5-(1H-pyrazol-5-yl)phenyl]-4-[(4-phenylquinazolin-2-yl)amino]benzamide] | 6.3 |
| Cc1ccc(CN2CCOCC2)cc1NC(=O)c1ccc(Nc2nc(-c3ccccc3)c3ccccc3n2)c(F)c1 [3-fluoro-N-[2-methyl-5-(morpholin-4-ylmethyl)phenyl]-4-[(4-phenylquinazolin-2-yl)amino]benzamide] | 6.2 |
| CN1CCc2ccc(NC(=O)c3ccc(Nc4nc(-c5ccccc5)c5ccccc5n4)cc3)cc2C1 [N-(2-methyl-1,2,3,4-tetrahydroisoquinolin-7-yl)-4-[(4-phenylquinazolin-2-yl)amino]benzamide] | 5.8 |
| Cc1ccc(CN(C)Cc2ccccc2)cc1NC(=O)c1ccc(Nc2nc(C)c3ccccc3n2)cc1 [N-(2-methyl-5-{[methyl(phenylmethyl)amino]methyl}phenyl)-4-[(4-methylquinazolin-2-yl)amino]benzamide] | 3.4 |
| Cc1cccc(C)c1NC(=O)c1cc(Nc2nc(-c3ccccc3)c3ccccc3n2)c(Cl)s1 [5-chloro-N-(2,6-dimethylphenyl)-4-[(4-phenylquinazolin-2-yl)amino]thiophene-2-carboxamide] | 166 |
| O=C(c1ccccc1)N1CCC(Nc2nc(-c3ccccc3)c3ccccc3n2)CC1 [4-phenyl-N-[1-(phenylcarbonyl)piperidin-4-yl]quinazolin-2-amine] | 68.4 |
| CN(C)Cc1cccc(NC(=O)c2ccc(Nc3nc(-c4ccccc4)c4ccccc4n3)cc2)c1 [N-{3-[(dimethylamino)methyl]phenyl}-4-[(4-phenylquinazolin-2-yl)amino]benzamide] | 6.1 |
| Cc1cccc(C)c1NC(=O)c1ccc(Nc2nc(C3CC3)c3ccccc3n2)cc1 [4-[(4-cyclopropylquinazolin-2-yl)amino]-N-(2,6-dimethylphenyl)benzamide] | 2.8 |
| Cc1ccc(OCCN2CCOCC2)cc1NC(=O)c1ccc(Nc2nc(-c3ccccc3)c3ccccc3n2)cc1 [N-{2-methyl-5-[(2-morpholin-4-ylethyl)oxy]phenyl}-4-[(4-phenylquinazolin-2-yl)amino]benzamide] | 6.2 |
| Cc1cccc(C)c1NC(=O)c1ccc(Nc2nc3c(c(-c4ccccc4)n2)CCC3)cc1 [N-(2,6-dimethylphenyl)-4-[(4-phenyl-6,7-dihydro-5H-cyclopenta[d]pyrimidin-2-yl)amino]benzamide] | 25.8 |
| Cc1ccc(C(=O)NCCN(C)C)cc1NC(=O)c1ccc(Nc2nc(-c3ccccc3)c3ccccc3n2)cc1 [N-[2-(dimethylamino)ethyl]-4-methyl-3-[({4-[(4-phenylquinazolin-2-yl)amino]phenyl}carbonyl)amino]benzamide] | 16.4 |
| Cc1ccc(CN2CCOCC2)cc1NC(=O)c1ccc(Nc2nc(C(C)C)c3ccccc3n2)cc1 [4-{[4-(1-methylethyl)quinazolin-2-yl]amino}-N-[2-methyl-5-(morpholin-4-ylmethyl)phenyl]benzamide] | 17.8 |
| CCN1CCN(C(=O)c2ccc(C)c(NC(=O)c3ccc(Nc4nc(-c5ccccc5)c5ccccc5n4)cc3)c2)CC1 [N-{5-[(4-ethylpiperazin-1-yl)carbonyl]-2-methylphenyl}-4-[(4-phenylquinazolin-2-yl)amino]benzamide] | 23.9 |
